Measured values as given in patent US20150209281A1, “LIPOSOMAL COMPOSITIONS OF EPOXYKETONE-BASED PROTEASOME INHIBITORS” (ONYX THERAPEUTICS, INC., priority 2012, published 2015).
In brackets after ≈: the same amount, converted by molar mass. Like-named read-outs stand apart in the source and are kept apart here.

Assay: Aqueous solubility of carfilzomib
Type: physicochemical

solubility (30 °C, simulated gastric fluid, thermodynamic from solid, 0.1M HCl aqueous solution, ~pH 1, read-out: Approximate carfilzomib solubility at pH 1): ~1800 µg/mL (≈ 2500 µM)
solubility (aqueous medium, read-out: aqueous solubility): < 1 µg/mL
SMILES: CC(C)C[C@H](NC(=O)[C@H](CCc1ccccc1)NC(=O)CN1CCOCC1)C(=O)N[C@@H](Cc1ccccc1)C(=O)N[C@@H](CC(C)C)C(=O)[C@@]1(C)CO1 [carfilzomib]
